Where no end group is shown, it is not given here. Bounds are passed on as bounds.

The test system of the assay is PKA. The experiment in a line: Radioactive PKA kinase reaction with phosphocellulose or streptavidin capture. Particulars: substrate peptide. Format: biochemical. The procedure:
The peptide substrates were added in 90 μl assay buffer containing 20 mM Tris-HCl pH 7.5, 2.5 mM MgCl2, and 100 μM ATP for non-radioactive detection, or 10 μM cold ATP supplemented with 0.5 μCi/well [γ-^32 P]ATP for radioactive detection, unless indicated otherwise. Freshly reconstituted PKA (1.25 ng/well in 10 μl, unless indicated otherwise) was added last and the samples were incubated for 30 minutes at room temperature. Depending on the detection method the samples were further processed as described below.
After performing a PKA kinase reaction for 30 minutes, the samples were divided into two. 50 μl were transferred into wells of streptavidin coated microtiter plates, to allow the capture of the biotinylated peptides for additional 50 minutes. The wells were washed five times with water, dried, broken into scintillation vials and counted. The other half of the reaction mixture was further incubated in the original plate for 50 minutes, then TCA was added to the reaction mixture (10% final concentration) and 30 μl was spotted onto P81 paper (1×1 inch squares). After 20 minutes the squares were washed three times with water, dried, placed into scintillation vials and counted. A microtiter plate version of the phosphocellulose capture method was also used with similar results. For src only the phosphocellulose capture method was used.

For orientation: Km means the substrate concentration at which the rate is half of its maximum. On to “bio-RRRVTSAARRS (not fully specified (N-terminus); printed as bio-RRRVTSAARRS) [peptide 2]”, for which the Km is above 20 µM.

Source of the values: patent US5759787A, “Kinase assay” (Tularik Inc., priority 1996, dated 1998).
